# Patent US20050130252A1, “Stabilized susceptibility tests of aerobic pathogens” (Wyeth Holdings Corporation, priority 2003, published 2005)
# Where two headings read alike, the source gives them in different places.
# Experiments:
# [1] = tested on: E. faecalis ATCC 29212; assay: Broth microdilution MIC; format: cell-based, Enterococcus faecalis; conditions: for MIC: Enterococcus faecalis
# Procedure: (§1) The process for preparing susceptibility test medium are the following steps: • a. Preparing Mueller Hinton Broth II medium by adding 22 grams powdered media to 1.0 liter distilled water; • b. Autoclaving (121° C., 15 psi, 15 minutes) and cooling the medium; • c. Adding Oxyrase® up to about 10% final volume and keeping at 35-37° C. in an incubator for 30 minutes; • d. Adding about 50 μL to each well of a 96 well microtiter plate; • e. Weighing drug and adding broth to drug to bring up to about (standard 128 μg/ml); • f. Adding 50 μL of the drug to the first column of the titer plate; • g. Diluting by two-fold serial diluting across or down the plate. • h. Preparing a Prompt™ inoculum at 10^8 CFU/ml; • i. Diluting inoculum 1:100 in the broth at […] in 9.9 ml (1:100) is 10^6 colony forming units (CFU) forming the adjusted inoculum; • j. Adding 50 μL of the adjusted inoculum to the wells of the microtiter plate; • k. Incubating the plates at 35-37° C. for 18-22 hours; and • l. Reading, with the unaided eye, the MIC.
# (§2) The in vitro activities of tigecycline and control antibiotics were determined by the broth microdilution method as recommended by the NCCLS. (National Committee for Clinical Laboratory Standards, 2003. Methods for Dilution Antimicrobial Susceptibility Tests for Bacteria That Grow Aerobically; Approved Standards: M7-A6, Sixth ed, vol. 23., National Committee for Clinical Laboratory Standards Wayne, Pa.) was used for the standard procedures. MBH with 5% lysed horse blood was used for testing S. pneumoniae and Haemophilus Test Medium was used for testing H. influenzae. Oxyrase® (Oxyrase Inc, Mansfield, Ohio) was used according to the manufacturer's instructions by adding 1 ml of Oxyrase® to 50 ml of media. Media age studies were performed by preparing MHB in multiple flasks, then storing the media under various conditions. MICs were usually performed in duplicate on each day of testing. Storage under anaerobic conditions was conducted in an anaerobic chamber (MACS MG 1000, Don Whitley Scientific LTD). The pH of the media was determined by pH meter (Corning 430). A comparison of the in vitro activity of tigecycline by agar and broth dilution methodolgies with and without Oxyrase® against clinical isolates is shown in Table 1.
# [2] = tested on: P. aeruginosa ATCC 27853; assay: Broth microdilution MIC; format: cell-based, Pseudomonas aeruginosa; conditions: Pseudomonas aeruginosa, ATCC27853, read-out: Minimal Inhibitory Concentration, P. aeruginosa ATCC 27853
# Procedure: as §1, §2
# [3] = tested on: E. coli ATCC 25922; assay: Time-kill assay, fresh vs aged Mueller-Hinton broth; format: cell-based, Escherichia coli; conditions: FIG. 1
# Procedure: Time-kill assays were performed by the broth macrodilution method in accordance with the NCCLS guidelines (NCCLS. 1999. Methods for Determining Bactericidal Activity of Antimicrobial Agents; Approved Guidelines: M26-A, vol. 19. National Committee for Clinical Laboratory Standards, Wayne, Pa.). A starting inoculum of approximately 10^6 CFU/ml and a final concentration of the antibiotic equal to four times the MIC were employed for these assays. Flasks containing 50 ml of MHB II with the appropriate antimicrobial agent were inoculated with […] of the test organism in logarithmic growth phase. Test flasks (250 ml) were incubated with shaking (150 RPM) in a 35° C. water bath. Aliquots were removed for the determination of viable counts at 0, 2, 4, 6 and 24 hours. Serial dilutions were prepared in sterile 0.85% sodium chloride solution. The diluted samples (0.05 ml) were plated onto appropriate agar plates trypticase soy agar (TSA) with a spiral plater (Don Whitley Scientific LTD). The plates were incubated at 35° C. in ambient air for 18-22 hours and the number of colonies were determined on the ProtoCOL plate reader plater (Don Whitley Scientific LTD). Killing curves were constructed by plotting the log10 CFU/ml versus time over 24 hours and the change in bacterial concentration was determined. Data is shown graphically in FIG. 1. Presented in Table 3 are the minimal inhibitory concentration results of the effect of media age, fresh vs. aged and Oxyrase® on the activity of tigecycline.
# To further establish this effect, a time kill experiment was performed with E. coli ATCC 25922 in fresh and aged media at […] and 1 μg/ml of tigecycline, which represents 1×, and 4×MIC of this organism determined in aged media. […]
# [4] = Table 8, E. faecalis ATCC 29212, Mueller Hinton Broth + Oxyrase, n = 240
# [5] = Table 8, E. faecalis ATCC 29212, Mueller Hinton Broth, n = 320
# [6] = Table 9, E. faecalis ATCC 29212, Mueller Hinton Broth + Oxyrase, n = 31
# [7] = Table 9, E. faecalis ATCC 29212, Mueller Hinton Broth, n = 96
compound,measurement,setting,value
"CN(C)c1cc(NC(=O)CNC(C)(C)C)c(O)c2c1C[C@H]1C[C@H]3[C@H](N(C)C)C(O)=C(C(N)=O)C(=O)[C@@]3(O)C(O)=C1C2=O [Tigecycline, tigecycline]",MIC,"[1]; ATCC29212, 0 h, E. faecalis ATCC 29212, Day 0, Pre-prepared media, room temperature, N = 6",0.25 µg/mL
same,MIC,"[1]; ATCC29212, 0 h, E. faecalis ATCC 29212, Day 0, media Fresh from Powder 2° C., N = 6",0.03 µg/mL
same,MIC,"[1]; ATCC29212, 0 h, E. faecalis ATCC 29212, Day 0, media Fresh from Powder, room temperature, N = 6",0.03 µg/mL
same,MIC,"[1]; ATCC29212, 24 h, E. faecalis ATCC 29212, Day 1, Pre-prepared media, room temperature, N = 6",0.25 µg/mL
same,MIC,"[1]; ATCC29212, 24 h, E. faecalis ATCC 29212, Day 1, media Fresh from Powder 2° C., N = 6",0.03 µg/mL
same,MIC,"[1]; ATCC29212, 24 h, E. faecalis ATCC 29212, Day 1, media Fresh from Powder, room temperature, N = 6",0.03 to 0.06 µg/mL
same,MIC,"[1]; ATCC29212, 168 h, E. faecalis ATCC 29212, Day 7, Pre-prepared media, room temperature, N = 6",0.25 µg/mL
same,MIC,"[1]; ATCC29212, 168 h, E. faecalis ATCC 29212, Day 7, media Fresh from Powder 2° C., N = 6",0.06 µg/mL
same,MIC,"[1]; ATCC29212, 168 h, E. faecalis ATCC 29212, Day 7, media Fresh from Powder, room temperature, N = 6",0.12 to 0.25 µg/mL
same,MIC,"[1]; ATCC29212, 336 h, E. faecalis ATCC 29212, Day 14, Pre-prepared media, room temperature, N = 6",0.25 to 0.5 µg/mL
same,MIC,"[1]; ATCC29212, 336 h, E. faecalis ATCC 29212, Day 14, media Fresh from Powder 2° C., N = 6",0.25 µg/mL
same,MIC,"[1]; ATCC29212, 336 h, E. faecalis ATCC 29212, Day 14, media Fresh from Powder, room temperature, N = 6",0.25 µg/mL
same,MIC,"[1]; ATCC29212, 336 h, read-out: Minimal Inhibitory Concentration, E. faecalis ATCC29212, media Aged Aerobic (2 weeks at RT under room air), N = 4",0.25 µg/mL
same,MIC,"[1]; ATCC29212, 504 h, E. faecalis ATCC 29212, Day 21, Pre-prepared media, room temperature, N = 6",0.25 to 0.5 µg/mL
same,MIC,"[1]; ATCC29212, 504 h, E. faecalis ATCC 29212, Day 21, media Fresh from Powder 2° C., N = 6",0.25 µg/mL
same,MIC,"[1]; ATCC29212, 504 h, E. faecalis ATCC 29212, Day 21, media Fresh from Powder, room temperature, N = 6",0.25 µg/mL
same,MIC,"[1]; ATCC29212, 672 h, E. faecalis ATCC 29212, Day 28, Pre-prepared media, room temperature, N = 6",0.25 to 0.5 µg/mL
same,MIC,"[1]; ATCC29212, 672 h, E. faecalis ATCC 29212, Day 28, media Fresh from Powder 2° C., N = 6",0.12 to 0.25 µg/mL
same,MIC,"[1]; ATCC29212, 672 h, E. faecalis ATCC 29212, Day 28, media Fresh from Powder, room temperature, N = 6",0.12 to 0.25 µg/mL
same,MIC,"[1]; ATCC29212, read-out: Minimal Inhibitory Concentration (modal value), E. faecalis ATCC29212, Aged Media + Oxyrase, N = 8",0.12 µg/mL
same,MIC,"[1]; ATCC29212, read-out: Minimal Inhibitory Concentration (modal value), E. faecalis ATCC29212, Aged media, N = 8",0.5 µg/mL
same,MIC,"[1]; ATCC29212, read-out: Minimal Inhibitory Concentration (modal value), E. faecalis ATCC29212, Fresh Media + Oxyrase, N = 8",0.06 µg/mL
same,MIC,"[1]; ATCC29212, read-out: Minimal Inhibitory Concentration (modal value), E. faecalis ATCC29212, Freshly Prepared Media, N = 8",0.06 to 0.12 µg/mL
same,MIC,"[1]; ATCC29212, read-out: Minimal Inhibitory Concentration, E. faecalis ATCC 29212, 2% Oxyrase",0.03 µg/mL
same,MIC,"[1]; ATCC29212, read-out: Minimal Inhibitory Concentration, E. faecalis ATCC29212, Aged Media + Oxyrase, N = 8",0.12 µg/mL
same,MIC,"[1]; ATCC29212, read-out: Minimal Inhibitory Concentration, E. faecalis ATCC29212, Aged media, N = 8",0.25 to 0.5 µg/mL
same,MIC,"[1]; ATCC29212, read-out: Minimal Inhibitory Concentration, E. faecalis ATCC29212, Commercially Prepared media, N = 4",0.12 to 0.25 µg/mL
same,MIC,"[1]; ATCC29212, read-out: Minimal Inhibitory Concentration, E. faecalis ATCC29212, Fresh Media + Oxyrase, N = 8",0.06 µg/mL
same,MIC,"[1]; ATCC29212, read-out: Minimal Inhibitory Concentration, E. faecalis ATCC29212, Freshly Prepared Media, N = 8",0.06 to 0.12 µg/mL
same,MIC,"[1]; ATCC29212, read-out: Minimal Inhibitory Concentration, E. faecalis ATCC29212, Freshly Prepared media, N = 4",0.03 µg/mL
same,MIC,"[1]; ATCC29212, read-out: Minimal Inhibitory Concentration, E. faecalis ATCC 29212, MHB II + 0.05% Catalase",0.5 µg/mL
same,MIC,"[1]; ATCC29212, read-out: Minimal Inhibitory Concentration, E. faecalis ATCC 29212, MHB II + 0.05% L-ascorbic Acid",1 µg/mL
same,MIC,"[1]; ATCC29212, read-out: Minimal Inhibitory Concentration, E. faecalis ATCC 29212, MHB II + 0.05% L-cysteine",0.12 µg/mL
same,MIC,"[1]; ATCC29212, read-out: Minimal Inhibitory Concentration, E. faecalis ATCC 29212, MHB II + 0.05% Sodium Pyruvate",0.25 µg/mL
same,MIC,"[1]; ATCC29212, read-out: Minimal Inhibitory Concentration, E. faecalis ATCC 29212, MHB II + 0.05% Thioglycolate",0.12 µg/mL
same,MIC,"[1]; ATCC29212, read-out: Minimal Inhibitory Concentration, E. faecalis ATCC 29212, MHB II + 2% Oxyrase",0.03 to 0.06 µg/mL
same,MIC,"[1]; ATCC29212, read-out: Minimal Inhibitory Concentration, E. faecalis ATCC 29212, Mueller Hinton Broth II (Fresh)",0.06 to 0.12 µg/mL
same,MIC,"[1]; ATCC29212, read-out: Minimal Inhibitory Concentration, E. faecalis ATCC 29212, No Oxyrase",0.25 µg/mL
same,MIC,"[1]; ATCC29212, read-out: Minimal Inhibitory Concentration, E. faecalis ATCC29212, media Aged Anaerobic, N = 4",0.03 µg/mL
same,Number of Occurrences of MIC 0.03 ug/ml,[1]; [4],5
same,Number of Occurrences of MIC 0.06 ug/ml,[1]; [4],203
same,Number of Occurrences of MIC 0.12 ug/ml,[1]; [4],28
same,Number of Occurrences of MIC 0.25 ug/ml,[1]; [4],2
same,Number of Occurrences of MIC 0.5 ug/ml,[1]; [4],1
same,Number of Occurrences of MIC 1 ug/ml,[1]; [4],1
same,Number of Occurrences of MIC 0.06 ug/ml,[1]; [5],1
same,Number of Occurrences of MIC 0.12 ug/ml,[1]; [5],96
same,Number of Occurrences of MIC 0.25 ug/ml,[1]; [5],140
same,Number of Occurrences of MIC 0.5 ug/ml,[1]; [5],16
same,Number of Occurrences of MIC 1 ug/ml,[1]; [5],64
same,Number of Occurrences of MIC 2 ug/ml,[1]; [5],3
same,Number of Occurrences of MIC 0.03 ug/ml,[1]; [6],6
same,Number of Occurrences of MIC 0.06 ug/ml,[1]; [6],14
same,Number of Occurrences of MIC 0.12 ug/ml,[1]; [6],11
same,Number of Occurrences of MIC 0.12 ug/ml,[1]; [7],25
same,Number of Occurrences of MIC 0.25 ug/ml,[1]; [7],52
same,Number of Occurrences of MIC 0.5 ug/ml,[1]; [7],19
same,MIC,[2]; 2% Oxyrase,8 µg/mL
same,MIC,[2]; No Oxyrase,16 µg/mL
same,"Time kill, growth of E. coli ATCC25922 in aged media","[3]; 0.12 μg/ml of tigecycline, aged media",regrowth of the strain after 6 h exposure
same,"Time kill, growth of E. coli ATCC25922 in fresh media","[3]; 0.12 and 1 μg/ml of tigecycline, fresh media",suppressed the growth
same,"Difference in viable growth, fresh vs aged media (time kill kinetics)",[3]; E. coli ATCC 25922,> 3 log10
